≈ marks a conversion by molar mass, not a printed value.
Tests used:
S. sclerotiorum = assay: In vitro mycelium growth inhibition test; format: cell-based; conditions: Sclerotinia sclerotiorum, mycelial growth, mean ± SD of three replicates; for inhibition at 50 µg/mL: 50 μg/mL, read-out: Inhibition Rate (%) S. sclerotiorum; for EC50: read-out: EC50 against S. sclerotiorum
Experimental: (§1) B. cinerea and S. scleotiorum were kindly provided by the Department of Pesticides, College of Plant Protection, Nanjing Agricultural University (Nanjing, China). All compounds were evaluated for mycelium growth inhibition tests against the two plant pathogenic fungi mentioned in previous reports. These two fungi were inoculated on potato dextrose agar (PDA) plates and were grown in biochemical incubators at 25 ± 1 °C for 2–4 days. The new mycelium was used to determine the antifungal activity. The target compounds were dissolved in 100 µL DMF, and they were then added into the PDA media to make the concentration 50 µg/mL. Mycelia dishes of about 5 mm in diameter were cut from the culture medium. Mycelium were picked up with a sterile inoculation needle, and the sample was inoculated in the middle of a PDA plate in a sterile environment. Afterwards, a preliminary screening of fungal activity was performed. […] Each test was carried out three times. The radial growth of the fungal colonies was gauged and recorded when the diameters of the blank control mycelia reached 5.0–5.5 cm. […] The final data were analyzed using SPSS v.25.0 (IBM, New York, NY, USA). The following formula was used to calculate the fungi inhibition rate. Inhibition rate (%) = [(Mycelium diameter of negative control − Mycelium diameter of treatment)/(Mycelium diameter of negative control − 0.5)] × 100%(1)

B. cinerea = assay: In vitro mycelium growth inhibition test; format: cell-based; conditions: Botrytis cinerea; 50 μg/mL; mycelial growth; mean ± SD of three replicates; read-out: Inhibition Rate (%) B. cinerea
Experimental: as §1

MTT cytotoxicity assay = format: cell-based; conditions: human, L-02 normal liver cells, L-02 cells
Experimental: The human liver L-02 cells were obtained from the biology laboratory in Key Laboratory of Chemistry for Natural Products of Guizhou Province and Chinese Academy of Sciences (Guiyang, China). The cells were grown in Dulbecco’s Modified Eagle’s Medium (supplemented with 10% (v/v) FBS, 100 U/mL penicillin, and 100 μg/mL streptomycin) at 37 °C in a CO2 incubator (5% CO2 and 95% air, 95% humidity). The effect of some compounds on cell viability was determined with the MTT assay according to the previously published literature. A total of 5000 cells were inoculated in a 96-well plate and three wells of each concentration of test compound were used. A total of 24 h after inoculation, the cells had grown to ~60% confluency, and different concentrations of compounds were added, and then the cells were cultured for 48 h. DMSO was used as the control. A total of 20 μL of MTT solution was added to each well and incubated at 37 °C for 4 h. Formazan crystals were dissolved in 150 μL of DMSO and quantified using a microplate reader (Thermo Scientific, Vario Skan Flash, Shanghai Bio-Gene Technology Co., LTD, Shanghai, China) at 490 nm. The cytotoxicity was calculated according to following formula:Cytotoxicity (%) = [(OCK − OT)/OCK] × 100%(2) where OCK represents the optical density (OD) value of the blank control group, and OT represents the OD value of experimental group.

B. xylophilus = assay: microbe, parasite or virus in culture; conditions: Bursaphelenchus xylophilus, 48 h, read-out: Corrected Mortality Rate ± SD (%) B. xylophilus
Excerpt: (§2) M. incognita (parasitic on tomato plants), A. besseyi (potato dextrose agar–Botrytis cinerea breeding), B. xylophilus (potato dextrose agar–Botrytis cinerea breeding), and C. elegans (nematode growth medium–inactivated Escherichia coli OP50 cultivation) were provided by the Fine Chemical Research and Development Center of Guizhou University (Guizhou, China). The methodology used for the nematocidal bioassays of these target compounds was modified in the light of the conventional methods reported in the previously published literature. The nematicidal activity of the target compounds against four nematodes was determined using 48-well biochemical culture dishes. All of the compounds were dissolved with 100 μL DMF and were diluted with 1% Tween-80 to obtain 200 and 50 μg/mL concentrations for the bioassays. Fosthiazate and tioxazafen were used as positive controls at the same concentrations, and a negative control group was prepared without compounds using the same methodology. An amount of 10 µL of nematode suspension (about 50 nematodes) and 300 µL of the trial solution were added to corresponding hole, and each treatment was set to three repetitions. All of the 48-well plates were placed in a biochemical incubator at 27 °C for dark light culture. […] Corrected mortality (%) = [(mortality of treatment % − mortality of negative control %)/(1 − mortality of negative control %)] × 100%(3)

A. besseyi = assay: microbe, parasite or virus in culture; conditions: Aphelenchoides besseyi, 48 h, read-out: Corrected Mortality Rate ± SD (%) A. besseyi
Excerpt: as §2

C. elegans = assay: microbe, parasite or virus in culture; conditions: 48 h; for mortality at 50 µg/mL / mortality at 200 µg/mL: Caenorhabditis elegans, read-out: Corrected Mortality Rate ± SD (%) C. elegans
Excerpt: as §2

M. incognita = assay: microbe, parasite or virus in culture; conditions: Meloidogyne incognita, 48 h, read-out: Corrected Mortality Rate ± SD (%) M. incognita
Excerpt: as §2

Compound | inhibition at 50 µg/mL (S. sclerotiorum) [%] | EC50 (S. sclerotiorum) [µg/mL] | inhibition at 50 µg/mL (B. cinerea) [%] | cytotoxicity at 48 h, 50 μg/mL (MTT cytotoxicity assay) [%] | cytotoxicity at 48 h, 100 μg/mL (MTT cytotoxicity assay) [%] | cytotoxicity at 48 h, 200 μg/mL (MTT cytotoxicity assay) [%] | mortality at 50 µg/mL (B. xylophilus) [%] | mortality at 200 µg/mL (B. xylophilus) [%] | mortality at 50 µg/mL (A. besseyi) [%] | mortality at 200 µg/mL (A. besseyi) [%] | Corrected Mortality Rate ± SD (%) C. elegans (C. elegans; 50 µg/mL) [%] | Corrected Mortality Rate ± SD (%) C. elegans (C. elegans; 200 µg/mL) [%] | mortality at 50 µg/mL (C. elegans) [%] | mortality at 200 µg/mL (C. elegans) [%] | mortality at 50 µg/mL (M. incognita) [%] | mortality at 200 µg/mL (M. incognita) [%]
Cc1nc(C(F)(F)F)c(C(=O)Nc2c(Br)cc(OC(F)(F)F)cc2Br)s1 [Thifluzamide, thifluzamide, reference compound] | 86.7 ± 0.3 | 4.3 ± 1.7 (≈ 8.14 µM) | 80.3 ± 0.2 | 33.3 ± 1.8 | 33.7 ± 0.4 | 33.9 ± 1.5 |  |  |  |  |  |  |  |  |  | 
O=C(NCc1ccc(F)cc1F)c1nc(-c2ccccc2)no1 [Compound F3, N -(2,4-difluorobenzyl)-3-phenyl-1,2,4-oxadiazole-5-carboxamide] | 84.8 ± 0.6 | 5.4 ± 0.3 (≈ 17.1 µM) | 56.8 ± 0.1 | 7.5 ± 3.8 | 17 ± 1.4 | 50.8 ± 3.9 | 0 | 26.1 ± 1.2 | 0 | 20.1 ± 1.3 | 100.0 | 100.0 | 100 | 100 | 13.9 ± 2.1 | 54.9 ± 3.3
O=C(NCCc1ccccn1)c1nc(-c2ccccc2)no1 [Compound F1, 3-Phenyl-N-(2-(pyridin-2-yl)ethyl)-1,2,4-oxadiazole-5-carboxamide] | 73.2 ± 0.1 | 20.8 ± 0.8 (≈ 70.7 µM) | 24.2 ± 0.2 | 4.7 ± 4.9 | 10.9 ± 5.9 | 15.4 ± 4.4 | 0 | 6.1 ± 1.1 | 0 | 6.9 ± 1.2 |  |  | 51.3 ± 2.2 | 88.7 ± 1.3 | 6.9 ± 2.1 | 43.5 ± 2.3
Cc1ccc(-c2noc(C(=O)NCCc3ncc(C(F)(F)F)cc3Cl)n2)cc1 [Compound F6, N-(2-(3-chloro-5-(trifluoromethyl)pyridin-2-yl)ethyl)-3-(p-tolyl)-1,2,4-oxadiazole-5-carboxamide] | 56 ± 1.4 |  | 22.9 ± 1.1 |  |  |  | 0 | 11.6 ± 2.1 | 0 | 29.4 ± 2.3 | 100.0 | 100.0 | 100 | 100 | 7.9 ± 2.2 | 44.6 ± 3.8
O=C(NCCc1ncc(C(F)(F)F)cc1Cl)c1nc(-c2cccs2)no1 [Compound F14] | 65.2 ± 0.2 | 15.3 ± 1.3 (≈ 38 µM) | 36.4 ± 0.2 | 18.8 ± 2.5 | 21.4 ± 5 | 39.1 ± 8.4 | 0 | 6.9 ± 1.8 | 0 | 27 ± 0.8 |  |  | 70 ± 0.6 | 100 | 0 | 12.3 ± 2.3
O=C(Nc1ccc(Cl)cc1Cl)c1nc(-c2ccc(Cl)cc2)no1 [Compound F12, 3-(4-chlorophenyl)-N-(2,4-dichlorophenyl)-1,2,4-oxadiazole-5-carboxamide] | 24.8 ± 1.4 |  | 29.1 ± 1.4 |  |  |  | 0 | 20.8 ± 2.5 | 0 | 18.8 ± 1.1 |  |  | 8.6 ± 1.6 | 47.6 ± 1.2 | 13.8 ± 2.3 | 54.8 ± 2.5
O=C(NCCc1ccccn1)c1nc(-c2ccc(Cl)cc2)no1 [Compound F9, 3-(4-chlorophenyl)-N-(2-(pyridin-2-yl)ethyl)-1,2,4-oxadiazole-5-carboxamide] | 61.1 ± 0.7 | 18.7 ± 0.4 (≈ 56.9 µM) | 26.7 ± 0.5 | -2.5 ± 0.2 | 7.1 ± 6.5 | 31.5 ± 8.7 | 0 | 14.5 ± 2.5 | 0 | 12.8 ± 2.3 |  |  | 62.1 ± 2.2 | 87.6 ± 1.1 | 9.8 ± 2.5 | 56.3 ± 2.4
O=C(NCCc1ncc(C(F)(F)F)cc1Cl)c1nc(-c2ncc(C(F)(F)F)cc2Cl)no1 [Compound F22] | 37.6 ± 1.9 |  | 45.2 ± 0.9 |  |  |  | 0 | 17.1 ± 2.2 | 0 | 26.5 ± 2.1 |  |  | 45.7 ± 2.3 | 80.2 ± 1.5 | 0 | 18.3 ± 1.7
O=C(NCc1ccc(F)cc1F)c1nc(-c2ccc(Br)nc2)no1 [Compound F19] | 35.8 ± 0.8 |  | 42.2 ± 0.2 |  |  |  | 0 | 30.7 ± 1.1 | 0 | 23.5 ± 2.6 |  |  | 64.1 ± 1.2 | 93.5 ± 2.6 | 7.9 ± 1.2 | 30.7 ± 1.1
